{"source": "patent US20260216166A1", "about": "“COMPOUND FOR TREATMENT OF ERECTILE DYSFUNCTION” (Initiator Pharma A/S, priority 2023, published 2026)", "key": {"healthy male subjects": {"tested_on": "healthy male subjects", "experiment": "Phase I ascending single oral dose safety and tolerability in healthy male subjects", "type": "in vivo, human", "procedure": "The study was a Phase I, randomised, double-blind, placebo-controlled, ascending single oral dose, safety, tolerability, pharmacokinetic (PK) and pharmacodynamics (PD) study of IP2015 in healthy male subjects.\nEach subject received one oral dose of IP2015 or matched placebo. The starting dose of IP2015 was 0.01 mg in Cohort 1. The dose level was to be escalated to a maximum of 0.05 mg in Cohort 2 and a maximum of 0.2 mg in Cohort 3. The doses in the remaining five cohorts were to be determined based on the dose escalation criteria. In every cohort, no more than 2 subjects were dosed on the first dosing day (1 active; 1 placebo) such that no more than 1 subject received an active IP2015 dose for the first time at each dose level.\nThe doses used in each cohort were as follows: • Cohort 1-0.01 mg • Cohort 2-0.05 mg • Cohort 3-0.2 mg • Cohort 4-0.6 mg • Cohort 5-1.8 mg • Cohort 6-5.4 mg • Cohort 7-16.2 mg • Cohort 8-10 mg\nThe study evaluated the clinical safety data from adverse event (AE) reporting, 12-lead electrocardiogram (ECG), cardiac telemetry, vital signs (standing and supine blood pressure (BP), heart rate (HR), oral temperature and clinical laboratory evaluations (chemistry, haematology, urinalysis) and physical examinations in healthy male subjects.\nSafety parameters were listed and summarised using descriptive statistics. Pharmacokinetic parameter estimates were calculated using noncompartmental methods. Pharmacokinetic data were listed for each subject/patient and summarised by descriptive statistics."}, "male patients with ED": {"tested_on": "male patients with ED", "experiment": "RigiScan assessment during visual stimulus challenge in male patients with ED", "type": "in vivo, human", "set-up": "individual RAU value at the base / individual TAU value at the tip / individual RAU value at the tip / individual TAU value at the base: unit not given here", "text": "The RigiScan Plus Monitor consists of two loops, one to be placed around the base of the penis and the other towards the tip. The ambulatory monitor uses tip and base penile loops that adjust by tightening slightly at discrete time intervals to measure and record penile rigidity and tumescence. Each loop contains a cable that moves freely inside a conduit. Each loop takes a measurement every 15 seconds. The loop gently tightens with a linear force of 4 ounces (114 g) and then immediately releases and the tissue rebounds to its unloaded state. The RigiScan Plus Monitor then takes a tumescence measurement. After the tumescence measurement is taken, it is compared to the previous samples. When a 6 mm increase in tumescence is detected, representing possible erectile activity, the RigiScan Plus Monitor takes a second measurement every 30 seconds. After tumescence is measured, the loops tighten a second time around the circumference of the penis with a linear force of 10 ounces (283.5 g). The RigiScan Plus Monitor takes a measurement when this force is applied to record a cross sectional response to radial compression. This is how rigidity is measured^1. Data were recorded on a monitor strapped to the thigh of the subjects/participants and downloaded onto a computer after the recording session. Subjects/participants were instructed on how to self-apply the RigiScan Plus Monitor by the Investigator and were advised to wear loose fitting clothing during the residential stay at the unit.\nThe study was an exploratory Phase II, randomised, placebo-controlled, double-blind, crossover study, investigating the effects of a single oral dose of IP2015 on erectile function in males with ED. A dose level of 10 mg was selected. Patients were enrolled into two cohorts. Both cohorts participated in two periods (Period 1 and Period 2) and received a single dose of IP2015 and a single dose of placebo.\nPatients were assessed for efficacy using the RigiScan Plus Monitor during the stimulus challenge at predose and 1, 4 and 8-hour postdose on Day 1 of each treatment period.\nThe design of the stimulus challenge is outlined in FIG. 3. Predose and 1, 4 and 8-hour postdose, the patients were asked to watch a 20-minute digital clip in a private room. The digital clip consisted of a 10-minute neutral digital clip followed by a 10-minute digital clip consisting of heterosexual pornography. The study staff started the digital clip and then left the room, during which there was a 1-minute delay before the neutral digital clip commenced. The neutral and pornographic digital clip were different at each assessment. RigiScan assessments were recorded through the assessment period. The RigiScan Plus Monitor was applied for approximately 20 minutes on each occasion. The patient was semi-recumbent during the assessment.\nThe RigiScan measurement parameters were treated as efficacy outcomes and calculated in a similar fashion as in Example 2.\nEffects of IP2015 on PD parameters were analysed with a generalised mixed regression model using a PD parameter as responsible variable, treatment (active and placebo), timepoint, period (1 and 2), sequence (active-placebo, placebo-active), interaction between treatment and timepoint as mixed effects, baseline measurements as a covariate, and patient as a random effect. This model was applied to each PD parameter. The treatment difference between active and placebo at different timepoints together with 95% CIs was derived from the generalized mixed regression model. For a continuous outcome, treatment difference was measured as the difference in LS mean; for a binary outcome, treatment difference was measured as the odds ratio. In case of model non-convergence due to small sample size at some timepoints, those timepoints could be pooled with neighbouring timepoints."}, "[1]": {"settings": "10 mg, 4 hours postdose, N = 12"}, "[2]": {"settings": "10 mg, 4 hours postdose, statistically significant"}}, "note": "“Also recorded” adds a separate entry of the source.", "data": [{"smiles": "COc1cc2ccc(OC3CC4CCC(C3)N4)cc2oc1=O", "note": "(centres unmarked) [IP2015, 7-[(8-azabicyclo[3.2.1]octan-3-yl)oxy]-3-methoxy-chromen-2-one]", "values": [{"measurement": "incidence of TEAEs", "setting": "healthy male subjects; 0.01 mg to 10 mg dose range", "result": "lower incidence of treatment-emergent adverse effects (TEAEs) compared to higher doses; also recorded: relatively low; also recorded: lower side effects than doses of 16.2 mg"}, {"measurement": "mean ECG parameters", "setting": "healthy male subjects; 0.01 mg to 10 mg dose range", "result": "no significant treatment- or dose-related trends"}, {"measurement": "vital sign values", "setting": "healthy male subjects; 0.01 mg to 10 mg dose range", "result": "no significant treatment- or dose-related trends"}, {"measurement": "subjects with sustained tachycardia for several hours", "setting": "healthy male subjects; 16.2 mg", "result": 2}, {"measurement": "incidence of side effects", "setting": "healthy male subjects; 16.2 mg compared to 0.01 mg to 10 mg", "result": "increased at 16.2 mg compared to the 0.01 mg to 10 mg dose range"}, {"measurement": "subjects reporting at least one TEAE", "setting": "healthy male subjects; 16.2 mg dose group (all subjects)", "result": 4}, {"measurement": "standing pulse rate", "setting": "healthy male subjects; 16.2 mg, 2, 3, 4, 6, 8, 10 and 12 hours postdose", "result": "increases from baseline"}, {"measurement": "supine pulse rate", "setting": "healthy male subjects; 16.2 mg, 6, 8 and 10 hours postdose", "result": "increases from baseline"}, {"measurement": "heart rate (ECG)", "setting": "healthy male subjects; 16.2 mg, 8 and 12 hours postdose", "result": "increases from baseline"}, {"measurement": "haematology, serum biochemistry or urinalysis data", "setting": "healthy male subjects; healthy males, single oral doses", "result": "no significant treatment- or dose-related trends"}, {"measurement": "total TEAEs", "setting": "healthy male subjects; in the 40 subjects who received IP2015, 0.01-16.2 mg", "result": 32}, {"measurement": "subjects experiencing TEAEs", "setting": "healthy male subjects; of the 40 subjects who received IP2015, 0.01-16.2 mg", "result": 16}, {"measurement": "discontinuation due to a TEAE", "setting": "healthy male subjects; whole Phase I study", "result": "no subjects discontinued due to a TEAE"}, {"measurement": "severity of TEAEs", "setting": "healthy male subjects; whole Phase I study", "result": "majority of events were mild in severity"}, {"measurement": "baseline circumference at the tip, LS mean difference compared to placebo", "setting": "male patients with ED; 10 mg, 1 hour postdose, 95% CI: 0.02, 1.05, significantly higher", "result": 0.53}, {"measurement": "Average event rigidity, Base, LS Mean Difference of IP2015 − Placebo", "setting": "male patients with ED; 10 mg, 4 hours postdose", "result": 6.92, "unit": "%"}, {"measurement": "Average event rigidity, Tip, LS Mean Difference of IP2015 − Placebo", "setting": "male patients with ED; 10 mg, 4 hours postdose", "result": 10.21, "unit": "%"}, {"measurement": "Average events of tumescence, Base, LS Mean Difference of IP2015 − Placebo", "setting": "male patients with ED; 10 mg, 4 hours postdose", "result": 1.05}, {"measurement": "Average events of tumescence, Tip, LS Mean Difference of IP2015 − Placebo", "setting": "male patients with ED; 10 mg, 4 hours postdose", "result": 1.05}, {"measurement": "Baseline circumference, Base, LS Mean Difference of IP2015 − Placebo", "setting": "male patients with ED; 10 mg, 4 hours postdose", "result": "−0.28"}, {"measurement": "Baseline circumference, Tip, LS Mean Difference of IP2015 − Placebo", "setting": "male patients with ED; 10 mg, 4 hours postdose", "result": "−0.21"}, {"measurement": "Event duration, LS Mean Difference of IP2015 − Placebo", "setting": "male patients with ED; 10 mg, 4 hours postdose", "result": "8.20 % of session"}, {"measurement": "RAU, Base, LS Mean Difference of IP2015 − Placebo", "setting": "male patients with ED; 10 mg, 4 hours postdose", "result": 2.33}, {"measurement": "TAU, Tip, LS Mean Difference of IP2015 − Placebo", "setting": "male patients with ED; 10 mg, 4 hours postdose", "result": 1.42}, {"measurement": "Time rigid 80-100%, Base, LS Mean Difference of IP2015 − Placebo", "setting": "male patients with ED; 10 mg, 4 hours postdose", "result": 0.03}, {"measurement": "Total event duration, LS Mean Difference of IP2015 − Placebo", "setting": "male patients with ED; 10 mg, 4 hours postdose", "result": 0.05, "unit": "min"}, {"measurement": "Total events, LS Mean Difference of IP2015 − Placebo", "setting": "male patients with ED; 10 mg, 4 hours postdose", "result": 0.03}, {"measurement": "time rigid 80%-100% at the tip, RAU at the tip and TAU at the base versus placebo", "setting": "male patients with ED; 10 mg, 4 hours postdose", "result": "statistically significant compared to placebo"}, {"measurement": "patients appearing to respond to treatment (individual RAU and TAU values)", "setting": "male patients with ED; 10 mg, 4 hours postdose, 12 patients", "result": 3}, {"measurement": "Average event rigidity, Base, Mean (SD)", "setting": "male patients with ED; [1]", "result": "20.83 (30.61) %"}, {"measurement": "Average event rigidity, Tip, Mean (SD)", "setting": "male patients with ED; [1]", "result": "19.58 (29.42) %"}, {"measurement": "Average events of tumescence, Base, Mean (SD)", "setting": "male patients with ED; [1]", "result": "3.49 (4.35)"}, {"measurement": "Average events of tumescence, Tip, Mean (SD)", "setting": "male patients with ED; [1]", "result": "3.33 (4.16)"}, {"measurement": "Baseline circumference, Base, Mean (SD)", "setting": "male patients with ED; [1]", "result": "7.21 (1.54)"}, {"measurement": "Baseline circumference, Tip, Mean (SD)", "setting": "male patients with ED; [1]", "result": "6.82 (1.16)"}, {"measurement": "Event duration, Mean (SD)", "setting": "male patients with ED; [1]", "result": "17.75 (27.72) % of session"}, {"measurement": "RAU, Base, Mean (SD)", "setting": "male patients with ED; [1]", "result": "3.50 (6.82)"}, {"measurement": "RAU, Tip, Mean (SD)", "setting": "male patients with ED; [1]", "result": "3.25 (6.25)"}, {"measurement": "TAU, Base, Mean (SD)", "setting": "male patients with ED; [1]", "result": "2.83 (4.97)"}, {"measurement": "TAU, Tip, Mean (SD)", "setting": "male patients with ED; [1]", "result": "2.17 (3.59)"}, {"measurement": "Time rigid 80-100%, Base, Mean (SD)", "setting": "male patients with ED; [1]", "result": "0.04 (0.11)"}, {"measurement": "Time rigid 80-100%, Tip, Mean (SD)", "setting": "male patients with ED; [1]", "result": "0.04 (0.10)"}, {"measurement": "Total event duration, Mean (SD)", "setting": "male patients with ED; [1]", "result": "0.09 (0.14) mins"}, {"measurement": "Total events, Mean (SD)", "setting": "male patients with ED; [1]", "result": "0.42 (0.51)"}, {"measurement": "RAU, Tip, LS Mean Difference of IP2015 − Placebo", "setting": "male patients with ED; [2]", "result": 2.54}, {"measurement": "TAU, Base, LS Mean Difference of IP2015 − Placebo", "setting": "male patients with ED; [2]", "result": 1.95}, {"measurement": "Time rigid 80-100%, Tip, LS Mean Difference of IP2015 − Placebo", "setting": "male patients with ED; [2]", "result": 0.03}, {"measurement": "individual RAU value at the base", "setting": "male patients with ED; Patient 176, 4 hours postdose", "result": 21}, {"measurement": "individual RAU value at the tip", "setting": "male patients with ED; Patient 176, 4 hours postdose", "result": 19}, {"measurement": "individual TAU value at the base", "setting": "male patients with ED; Patient 176, 4 hours postdose", "result": 14}, {"measurement": "individual TAU value at the tip", "setting": "male patients with ED; Patient 176, 4 hours postdose", "result": 8}, {"measurement": "individual RAU value at the base", "setting": "male patients with ED; Patient 177, 4 hours postdose", "result": 14}, {"measurement": "individual RAU value at the tip", "setting": "male patients with ED; Patient 177, 4 hours postdose", "result": 13}, {"measurement": "individual TAU value at the base", "setting": "male patients with ED; Patient 177, 4 hours postdose", "result": 11}, {"measurement": "individual TAU value at the tip", "setting": "male patients with ED; Patient 177, 4 hours postdose", "result": 9}, {"measurement": "individual RAU value at the base", "setting": "male patients with ED; Patient 191, 4 hours postdose", "result": 4}, {"measurement": "individual RAU value at the tip", "setting": "male patients with ED; Patient 191, 4 hours postdose", "result": 5}, {"measurement": "individual TAU value at the base", "setting": "male patients with ED; Patient 191, 4 hours postdose", "result": 7}, {"measurement": "individual TAU value at the tip", "setting": "male patients with ED; Patient 191, 4 hours postdose", "result": 7}]}]}
